Data as given in publication PMC4249827, “A Novel CMKLR1 Small Molecule Antagonist Suppresses CNS Autoimmune Inflammatory Disease” (PLoS ONE, 2014).
Where a name gives a salt, the structure may show the parent alone.

How the values were obtained:
[1] = literature statement; cited from earlier work
[2] = target: T1, mCMKLR1 (Mus musculus, UniProt P97468); assay: Transwell chemotaxis of mCMKLR1/L1.2 transfectants to chemerin
T1 sequence (P97468 1-371): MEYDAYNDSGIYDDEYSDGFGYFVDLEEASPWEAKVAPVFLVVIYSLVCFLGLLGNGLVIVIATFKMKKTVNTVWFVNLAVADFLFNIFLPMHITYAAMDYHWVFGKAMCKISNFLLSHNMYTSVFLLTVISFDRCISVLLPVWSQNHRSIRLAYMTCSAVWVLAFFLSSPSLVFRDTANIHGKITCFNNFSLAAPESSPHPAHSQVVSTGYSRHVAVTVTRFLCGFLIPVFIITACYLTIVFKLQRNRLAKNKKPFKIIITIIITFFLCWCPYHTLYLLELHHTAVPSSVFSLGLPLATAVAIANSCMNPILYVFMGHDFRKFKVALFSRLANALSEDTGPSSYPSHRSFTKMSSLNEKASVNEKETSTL

[3] = target: T2, huCMKLR1 (Homo sapiens, UniProt Q99788); assay: Transwell chemotaxis of huCMKLR1/L1.2 transfectants to chemerin
T2 sequence (Q99788 1-373): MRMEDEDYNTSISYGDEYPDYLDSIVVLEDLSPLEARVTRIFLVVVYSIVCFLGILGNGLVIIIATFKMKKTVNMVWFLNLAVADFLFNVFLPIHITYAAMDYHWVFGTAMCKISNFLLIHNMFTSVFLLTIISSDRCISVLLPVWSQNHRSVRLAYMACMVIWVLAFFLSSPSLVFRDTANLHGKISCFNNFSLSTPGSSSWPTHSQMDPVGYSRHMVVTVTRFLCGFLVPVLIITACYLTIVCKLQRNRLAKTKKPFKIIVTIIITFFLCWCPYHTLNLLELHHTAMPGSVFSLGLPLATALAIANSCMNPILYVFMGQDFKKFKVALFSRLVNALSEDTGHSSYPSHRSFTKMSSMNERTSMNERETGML

[4] = target: T2, huCMKLR1; assay: β-arrestin2 (β-ARR2) enzymatic complementation assay, CMKLR1/CHO cells; assay type: cell-based; parameters: host or cells: CHO; conditions: for IC50: mean±SEM, n = 3-14 independent experiments, read-out: IC50 (µM), β-arrestin, huCMKLR1
Description: The engagement of a chemoattractant receptor by its cognate ligand stimulates the recruitment of β-arrestin to the carboxyl-terminus of the receptor, an event that results in receptor internalization and termination of G protein-mediated signaling. […] To test this, we used an enzymatic complementation assay (the β-ARR2 assay), whereby the complementary fragments from the β-gal active site are fused to the carboxyl-terminus of CMKLR1 and β-arrestin2. The special association of these molecules leads to enzyme activity, which is detected by a chemiluminescent substrate.

[5] = tested on: Choline acetyltransferase; conditions: cited from earlier work

| IC50 [2] | IC50 [3] | IC50 [4] | inhibitory activity in the in vitro assays ([4]; β-ARR2 and transwell migration assays) | fold less potent than α-NETA ([4]; chemerin-stimulated β-ARR2 association with CMKLR1 or CMKLR1+ cell migration) | Structure (SMILES) | bound by serum proteins [1] | fold less potent than α-NETA in inhibiting ChAT enzyme activity [5] |
| --- | --- | --- | --- | --- | --- | --- | --- |
|  |  |  |  |  | COC(=O)/C=C/C(=O)O [monomethyl fumarate] | 30% |  |
| > 100 µM | > 100 µM | > 10 µM | no inhibitory activity |  | c1ccc2ccccc2c1 [naphthalene, reference compound] |  |  |
| 78 ± 22 µM | 77 ± 23 µM | 7.5 ± 0.74 µM |  | 10–20 fold | CN(C)CCC(=O)c1cccc2ccccc12 [α-NEDA, 2-(α-naphthoyl)ethyldimethylamine] |  | 7 fold |
